Experimental data taken from patent US12004538B2, “Method for improving meat quality” (CAN TECHNOLOGIES, INC., priority 2017, dated 2024).
Read-outs that look alike come from different tables or passages of the source.

Legend:
[1] = for Carcass yield: HCW divided by live weight
Procedure: (§1) The trial was conducted in the grower-finisher unit 1 and 2 of Cargill Innovation Center Velddriel, The Netherlands. Pigs were allocated with 64 days of age. A randomized block design was used using 6 treatments divided over 48 pens by using 8 weight blocks in total. A pen was the experimental unit. Each pen contained 4 animals. Barrows and gilts were equally distributed among treatments. The experiment consisted of a 3×2 factorial design with three different levels of Bolifor™ CNFR (calcium nitrate) and with and without heat stress, with 8 replications per treatment (Table 1). During phase 1 (day 0 to day 24, i.e., d0-24) a common diet was fed. In phase 2 (d24-56) and phase 3 (d56-101) pigs were fed one of the 6 experimental diets (pellet form).
On day 83 of the trial one pig per pen was removed and transported to a commercial processing plant. On day 102, pigs were weighed and transported to a commercial processing plant (Compaxo, Zevenaar, The Netherlands). Each pig received an ear tag according to pen number to allow for data retrieval by pen and carcass data collection at the packing plant. Hot carcass weights (HCW) were measured immediately after evisceration and each carcass was evaluated for backfat, loin depth, and lean percentage. Fat depth and loin depth were measured with an optical probe inserted between 3rd and 4th last rib. Lean percentage was provided from the packing plant by using a proprietary equation. Percentage yield was calculated by dividing HCW by live weight obtained before transport to the packing plant.
Temperature, humidity and ventilation were automatically controlled. During phase 1 (from experimental day 0 until 24) pigs were not submitted to heat stress conditions. From experimental day 32 onwards pigs in Unit 2 were exposed to heat stress conditions (total period length of 66 days). During this period of heat stress the temperature was raised to 30° C. (from 8 AM-6 PM) and decreased to 26° C. from 6 PM-8 AM. During the heat stress period the relative humidity was kept at 80% in Unit 2 and the minimum ventilation was adjusted according to the body weight of the pigs.

[2] = system: longissimus muscle; conditions: for L* day 2 / a* day 2 / b* day 2 / pH* day 2: 24 hours after slaughter; for L* day 1 / a* day 1 / b* day 1: day of slaughter
Procedure: as §1
At slaughter, meat samples were taken to measure meat color. Color was evaluated at the longissimus muscle for L* (lightness), a* (redness), and b* (yellowness) values using a Minolta spectrophotometer. The first measurement was taken 3 hours postmortem and the second measurement 24 hours after first measurement. At the time of the 2nd color measurement, pH was also measured.

[3] = Procedure: as §1
Feed intake and body weight were measured at day 0, 24, 39, 59, 83 and 101. Ultrasound measurements were made at day 24, 59 and 101. To get more insight on metabolic defenses when pigs are submitted to heat stress, urine samples were taken at experimental day 84 (105 kg average BW) in the morning from the control animals (16 animals) in the heat stress group and the non-heat stressed group to measure pH, and calcium and phosphorus content. The pH was measured right after collection. During the first three weeks of heat stress skin temperature was measured daily with an infrared device (Testo 845). From 3 weeks onwards, skin temperature was measured weekly.
For comparison of the different treatments, the parameters ADG, ADFI and Feed conversion ratio (FRC) (all normally distributed) were subjected to Mixed Model analysis, using SAS JMP (Version 9.0, SAS Institute Inc., Cary, NC, 2008) according to the following statistical model: Yijk=μ+αi+βj+(αβ)ij+Sexk+δi1+BW24m+εijklm Where, • μ=population mean; • αi=main effect of temperature/room i (A), i=1, 2; • βj=main effect of calcium nitrate level j (B), j=1, 2, 3; • Sex1=random effect of sex, 1=barrow, gilt; • BW24m=BW at day 24 (covariable) • (αβ)ij is the interaction effect of A and B; for each j and for each i • δik˜Niid(0, s^2a) is the whole plot (block) error, k=1, 2, . . . , 8; • εijk˜Niid(0, s^2e) is the sub plot (pen) error, k=1, 2, . . . , 8. Linear and quadratic contrast for calcium nitrate level was tested. Differences between treatment means were assumed to be significant based on the probability of P<0.05 (Student t-test); unless other probability value is stated.

[4] = young piglets
[5] = cited from earlier work
[6] = 0.063% nitrate inclusion in feed
[7] = heat stress, nitrate 0.063% in diet
[8] = heat stress, nitrate 0.1% in diet
[9] = normal temperature, nitrate 0.063% in diet
[10] = normal temperature, nitrate 0.1% in diet
[11] = grower-finisher pigs, nitrate in the water

O=[N+]([O-])[O-].O=[N+]([O-])[O-].[Ca+2] [Nitrate, calcium nitrate]
carcass yield, rank among treatments [1, 6]: highest | slaughter weight, rank among treatments [1, 6]: lowest slaughter weight | effect of nitrate level on carcass yield ([1]; P<0.05): quadratic effect | effect of nitrate level on full weight ([1]; P<0.05): quadratic effect | effect of nitrate level on slaughter weight ([1]; P<0.05): quadratic effect | Backfat [1, 7]: 18.7 mm | Carcass weight [1, 7]: 100.2 kg | Lean meat [1, 7]: 56.1% | Muscle [1, 7]: 68.6 mm | Slaughter weight [1, 7]: 122.8 kg | Weight full [1, 7]: 125.0 kg | Carcass yield [1, 7]: 81.7% | Backfat [1, 8]: 18.9 mm | Carcass weight [1, 8]: 101.2 kg | Lean meat [1, 8]: 55.9% | Muscle [1, 8]: 68.5 mm | Slaughter weight [1, 8]: 124.9 kg | Weight full [1, 8]: 127.6 kg | Carcass yield [1, 8]: 81.2% | carcass weight compared to the other treatments ([1]; normal temperature, 0.063%): higher carcass weight | Backfat [1, 9]: 20.3 mm | Carcass weight [1, 9]: 105.1 kg | Lean meat [1, 9]: 55.0% | Muscle [1, 9]: 67.8 mm | Slaughter weight [1, 9]: 126.0 kg | Weight full [1, 9]: 128.2 kg | Carcass yield [1, 9]: 83.6% | Backfat [1, 10]: 16.8 mm | Carcass weight [1, 10]: 99.5 kg | Lean meat [1, 10]: 57.4% | Muscle [1, 10]: 69.3 mm | Slaughter weight [1, 10]: 127.3 kg | Weight full [1, 10]: 129.6 kg | Carcass yield [1, 10]: 78.3% | L* day 2 [2, 7]: 55.5 | a* day 2 [2, 7]: 9.5 | b* day 2 [2, 7]: −0.4 | pH* day 2 [2, 7]: 5.36 | L* day 2 [2, 8]: 55.1 | a* day 2 [2, 8]: 9.8 | b* day 2 [2, 8]: −0.7 | pH* day 2 [2, 8]: 5.35 | L* day 2 [2, 9]: 53.5 | a* day 2 [2, 9]: 9.8 | b* day 2 [2, 9]: −1.0 | pH* day 2 [2, 9]: 5.60 | L* day 2 [2, 10]: 53.7 | a* day 2 [2, 10]: 9.9 | b* day 2 [2, 10]: −0.9 | pH* day 2 [2, 10]: 5.58 | L* day 1 [2, 7]: 43.1 | a* day 1 [2, 7]: 7.0 | b* day 1 [2, 7]: −1.5 | L* day 1 [2, 8]: 42.5 | a* day 1 [2, 8]: 7.1 | b* day 1 [2, 8]: −1.6 | L* day 1 [2, 9]: 42.5 | a* day 1 [2, 9]: 7.3 | b* day 1 [2, 9]: −1.5 | L* day 1 [2, 10]: 43.0 | a* day 1 [2, 10]: 7.2 | b* day 1 [2, 10]: −1.4 | parameter a* at day 2 with increasing level of calcium nitrate in the diet ([2]; main effect of nitrate level, P=0.012): linearly increased | pH values in longissimus dorsi, main effect of nitrate ([2]; pig, in vivo): no significant effects | effect of calcium nitrate level on weight ([3]; day 83 and 101, P<0.05): quadratic effect | FCR ([3]; overall period (24-101 days), nitrate level 1 (0.063%), heat stress conditions, tendency P=0.09): better FCR | FCR with increasing level of calcium nitrate in the diet ([3]; phase 2 (d24-59) and whole trial (d24-101), P<0.05): linearly increased | effect of calcium nitrate level on ADG ([3]; phase 3 (d59-101), P<0.10): tended to show a quadratic effect | effect of calcium nitrate level on ADFI ([3]; phase 3 and whole trial, P<0.05): quadratic effect | effect of calcium nitrate level on ADG ([3]; whole trial (d24-101), P<0.05): quadratic effect | adverse effects on performance ([4]; feed dose titration 0.2, 0.4, 0.6, 0.8 and 1.0% calcium nitrate): no adverse effects | met-hemoglobin ([4]; highest level of calcium nitrate inclusion): stayed well within levels considered as safe | effect on hemoglobin or met-hemoglobin in the blood [5, 11]: no effect | effect on meat and liver NO content and on meat color, smell or taste [5, 11]: no effect | level of nitrate in swine feed that can be dosed safely ([5]; swine feed): ≥ 0.1%
